From patent publication US20120172359A1 (NOVARTIS AG, priority 2010, published 2012) come the findings set out here.

Where a name gives a salt, the structure may show the parent alone.

The target in the assay is Human BACE-1 (Homo sapiens, UniProt P56817). The assay is described as follows: Test 1: Inhibition of Human BACE-1. To be noted: Test 1; recombinant BACE-1 (extracellular domain), acetate buffer pH 4.5, 1 hour with test compound at room temperature, fluorescence-quenched peptide substrate; read-out: Bace IC50. Type of assay: biochemical.
Sequence of Human BACE-1 (P56817 46-457 limits assumed): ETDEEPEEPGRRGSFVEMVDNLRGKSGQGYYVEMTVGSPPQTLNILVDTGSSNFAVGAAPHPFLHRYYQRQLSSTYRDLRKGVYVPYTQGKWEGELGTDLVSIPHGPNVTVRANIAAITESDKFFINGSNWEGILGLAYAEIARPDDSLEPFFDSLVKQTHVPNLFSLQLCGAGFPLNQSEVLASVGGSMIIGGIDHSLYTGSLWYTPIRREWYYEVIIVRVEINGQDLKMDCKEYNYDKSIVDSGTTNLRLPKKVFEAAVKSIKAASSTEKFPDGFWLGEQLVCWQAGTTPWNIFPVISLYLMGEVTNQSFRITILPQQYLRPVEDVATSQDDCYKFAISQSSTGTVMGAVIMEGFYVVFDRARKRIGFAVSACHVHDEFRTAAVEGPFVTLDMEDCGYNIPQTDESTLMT
As for `NC1=N[C@@](c2cc(NC(=O)c3cc(Br)co3)ccc2F)(C(F)F)COC1` [Example 125, 4-Bromo-furan-2-carboxylic acid [3-((R)-5-amino-3-difluoromethyl-3,6-dihydro-2H-[1,4]oxazin-3-yl)-4-fluoro-phenyl]-amide hydrochloride], the IC50 was 78 nM. As for `NC1=NC(CF)(c2cc(Cl)cc(NC(=O)c3ccc(Br)cn3)c2)COC1` (stereo not drawn) [Example 32, 5-Bromo-pyridine-2-carboxylic acid [3-(5-amino-3-fluoromethyl-3,6-dihydro-2H-[1,4]oxazin-3-yl)-5-chloro-phenyl]-amide], the figure is 1400 nM; as for `COc1ccc(C(=O)Nc2cccc([C@]3(C)CO[C@@](C)(C(F)(F)F)C(N)=N3)c2)nc1` (relative stereo) [Example 67, 5-Methoxy-pyridine-2-carboxylic acid [3-((3R*,6R*)-5-amino-3,6-di-methyl-6-trifluoromethyl-3,6-di-hydro-2H-[1,4]oxazin-3-yl)-phenyl]-amide hydrochloride], 100 nM. As for `CC1(c2cccc(NC(=O)c3ncccc3F)c2)COCC(N)=N1` (stereo not drawn) [Example 9, 3-Fluoro-pyridine-2-carboxylic acid [3-(5-amino-3-methyl-3,6-dihydro-2H-[1,4]oxazin-3-yl)-phenyl]-amide], the figure is 2300 nM; as for `CC1(c2cccc(NC(=O)c3cc(Br)co3)c2)COCC(N)=N1` (stereo not drawn) [Example 20, 4-Bromo-furan-2-carboxylic acid [3-(5-amino-3-methyl-3,6-dihydro-2H-[1,4]oxazin-3-yl)-phenyl]-amide], 350 nM; as for `CCn1ccnc1C(=O)Nc1ccc(F)c([C@]2(C(F)F)COCC(N)=N2)c1` [Example 166, 1-Ethyl-1H-imidazole-2-carboxylic acid [3-((R)-5-amino-3-difluoromethyl-3,6-dihydro-2H-[1,4]oxazin-3-yl)-4-fluoro-phenyl]amide], 1200 nM. As for `Cc1c(C(=O)Nc2ccc(F)c([C@]3(C(F)F)COCC(N)=N3)c2)nnn1C` [Example 173, 1,5-Dimethyl-1H-[1,2,3]triazole-4-carboxylic acid [3-((R)-5-amino-3-difluoromethyl-3,6-dihydro-2H-[1,4]oxazin-3-yl)-4-fluoro-phenyl]-amide], the figure is greater than 10000 nM; as for `CC1(c2cccc(NC(=O)c3ccc(Br)cc3)c2)COCC(N)=N1` (stereo not drawn) [Example 24, N-[3-(5-Amino-3-methyl-3,6-dihydro-2H-[1,4]oxazin-3-yl)-phenyl]-4-bromo-benzamide], 970 nM; as for `NC1=NC(c2cc(NC(=O)c3ncc(Br)cc3O)c(F)cc2F)(C(F)F)COC1` (stereo not drawn) [Example 84, 5-Bromo-3-hydroxy-pyridine-2-carboxylic acid [5-(5-amino-3-difluoromethyl-3,6-dihydro-2H-[1,4]oxazin-3-yl)-2,4-difluoro-phenyl]-amide hydrochloride], 930 nM. As to `NC1=N[C@@](c2cc(NC(=O)c3ccc(=O)[nH]c3)ccc2F)(C(F)F)COC1` [Example 162, 6-Oxo-1,6-dihydro-pyridine-3-carboxylic acid [3-((R)-5-amino-3-difluoromethyl-3,6-dihydro-2H-[1,4]oxazin-3-yl)-4-fluoro-phenyl]-amide], the IC50 is 8500 nM. As for `Cc1cc(Br)cnc1C(=O)Nc1ccc(F)c(C2(CF)COCC(N)=N2)c1` (stereo not drawn) [Example 90, 5-Bromo-3-methyl-pyridine-2-carboxylic acid [3-(5-amino-3-fluoromethyl-3,6-dihydro-2H-[1,4]oxazin-3-yl)-4-fluoro-phenyl]-amide hydrochloride], the figure is 39 nM; as for `NC1=N[C@@](c2cc(NC(=O)c3ncc(Br)cc3O)ccc2F)(C(F)F)COC1` [Example 119, 5-Bromo-3-hydroxy-pyridine-2-carboxylic acid [3-((R)-5-amino-3-difluoromethyl-3,6-dihydro-2H-[1,4]oxazin-3-yl)-4-fluoro-phenyl]-amide hydrochloride], 10 nM. On to `Cc1ccc(C(=O)Nc2cccc(C3(C)COCC(N)=N3)c2)nc1` (stereo not drawn) [Example 27, 5-Methyl-pyridine-2-carboxylic acid [3-(5-amino-3-methyl-3,6-dihydro-2H-[1,4]oxazin-3-yl)-phenyl]-amide], for which the IC50 stood at 1400 nM.

With `C[C@@]1(c2cc(NC(=O)c3ncc(C#N)cn3)ccc2F)CO[C@@](C)(C(F)(F)F)C(N)=N1` (relative stereo) [Example 70, 5-Cyano-pyrimidine-2-carboxylic acid [3-((3R*,6R*)-5-amino-3,6-di-methyl-6-trifluoromethyl-3,6-di-hydro-2H-[1,4]oxazin-3-yl)-4-fluoro-phenyl]-amide trifluoro-acetate], the IC50 is 34 nM. The same measure for `CC1(C)OCC(c2cc(NC(=O)c3ccc(Br)cn3)ccc2F)(C(F)F)N=C1N` (stereo not drawn) [Example 80, 5-Bromo-pyridine-2-carboxylic acid [3-(5-amino-3-difluoromethyl-6,6-dimethyl-3,6-dihydro-2H-[1,4]oxazin-3-yl)-4-fluoro-phenyl]-amide hydrochloride]: 74 nM; for `Cc1cc(C(=O)Nc2ccc(F)c([C@]3(C(F)F)COCC(N)=N3)c2)n[nH]1` [Example 142, 5-Methyl-1H-pyrazole-3-carboxylic acid [3-((R)-5-amino-3-difluoromethyl-3,6-dihydro-2H-[1,4]oxazin-3-yl)-4-fluoro-phenyl]-amide hydrochloride]: 820 nM.

Turning to `CC1(c2cc(NC(=O)c3ccc(Br)cn3)ccc2F)N=C(N)COCC1(F)F` (stereo not drawn) [Example 101, 5-Bromo-pyridine-2-carboxylic acid [3-(3-amino-6,6-difluoro-5-methyl-2,5,6,7-tetrahydro-[1,4]oxazepin-5-yl)-4-fluoro-phenyl]-amide], the IC50 came out at 30 nM. As for `COc1cnc(C(=O)Nc2cccc(C3(C)COCC(N)=N3)c2)cn1` (stereo not drawn) [Example 18, 5-Methoxy-pyrazine-2-carboxylic acid [3-(5-amino-3-methyl-3,6-dihydro-2H-[1,4]oxazin-3-yl)-phenyl]-amide], the figure is 560 nM; as for `CC(C)Oc1cnc(C(=O)Nc2ccc(F)c([C@]3(C(F)F)COCC(N)=N3)c2)cn1` [Example 170, 5-Isopropoxy-pyrazine-2-carboxylic acid [3-((R)-5-amino-3-difluoromethyl-3,6-dihydro-2H-[1,4]oxazin-3-yl)-4-fluoro-phenyl]-amide], 340 nM; as for `N#Cc1ccc(C(=O)Nc2ccc(F)c(C3(CF)COCC(N)=N3)c2)nc1` (stereo not drawn) [Example 89, 5-Cyano-pyridine-2-carboxylic acid [3-(5-amino-3-fluoromethyl-3,6-dihydro-2H-[1,4]oxazin-3-yl)-4-fluoro-phenyl]-amide hydrochloride], 94 nM.

For the molecule `NC1=NC(c2cc(NC(=O)c3ccc(Cl)cn3)ccc2F)(C(F)F)COC1` (stereo not drawn) [Example 43, 5-Chloro-pyridine-2-carboxylic acid [3-(5-amino-3-difluoromethyl-3,6-dihydro-2H-[1,4]oxazin-3-yl)-4-fluoro-phenyl]-amide], the IC50 stood at 62 nM. The same measure for `NC1=N[C@@](c2cc(NC(=O)c3cnc(O)cn3)ccc2F)(C(F)F)COC1` [Example 145, 5-Hydroxy-pyrazine-2-carboxylic acid [3-((R)-5-amino-3-difluoromethyl-3,6-dihydro-2H-[1,4]oxazin-3-yl)-4-fluoro-phenyl]-amide hydrochloride]: 340 nM; for `CC1(c2cccc(NC(=O)c3ccccn3)c2)COCC(N)=N1` (stereo not drawn) [Example 13, Pyridine-2-carboxylic acid [3-(5-amino-3-methyl-3,6-dihydro-2H-[1,4]oxazin-3-yl)-phenyl]-amide]: 3400 nM; for `C[C@@]1(c2cc(Br)cc(NC(=O)c3ccc(C#N)cn3)c2)COCC(N)=N1` [Example 53, 5-Cyano-pyridine-2-carboxylic acid [3-((R)-5-amino-3-methyl-3,6-dihydro-2H-[1,4]oxazin-3-yl)-5-bromo-phenyl]-amide]: 380 nM. As for `NC1=N[C@@](c2cc(NC(=O)c3ccc(OCF)cn3)ccc2F)(C(F)F)COC1` [Example 139, 5-Fluoromethoxy-pyridine-2-carboxylic acid [3-((R)-5-amino-3-difluoromethyl-3,6-dihydro-2H-[1,4]oxazin-3-yl)-4-fluoro-phenyl]-amide], the figure is 75 nM. The same measure for `Cl.[2H]c1nc(C(=O)Nc2ccc(F)c([C@]3(C(F)F)COCC(N)=N3)c2)c(C([2H])([2H])[2H])c([2H])c1Cl` [Example 115, 5-Chloro-4,6-dideutero-3-trideuteromethyl-pyridine-2-carboxylic acid [3-((R)-5-amino-3-difluoromethyl-3,6-dihydro-2H-[1,4]oxazin-3-yl)-4-fluoro-phenyl]-amide hydrochloride]: 6 nM. With `COCc1cnc(C(=O)Nc2ccc(F)c([C@]3(C(F)F)COCC(N)=N3)c2)c(Cl)c1` [Example 183, 3-Chloro-5-methoxymethyl-pyridine-2-carboxylic acid [3-((R)-5-amino-3-difluoromethyl-3,6-dihydro-2H-[1,4]oxazin-3-yl)-4-fluoro-phenyl]-amide], the IC50 turned out to be 700 nM. Take `CC1(c2cccc(NC(=O)c3ncc(C(F)(F)F)cc3Cl)c2)COCC(N)=N1` (stereo not drawn) [Example 17, 3-Chloro-5-trifluoromethyl-pyridine-2-carboxylic acid [3-(5-amino-3-methyl-3,6-dihydro-2H-[1,4]oxazin-3-yl)-phenyl]-amide]: the IC50 was determined as 400 nM. On to `COc1cc(Br)cnc1C(=O)Nc1ccc(F)c([C@]2(CF)COCC(N)=N2)c1` [Example 95, 5-Bromo-3-methoxy-pyridine-2-carboxylic acid [3-((R)-5-amino-3-fluoromethyl-3,6-dihydro-2H-[1,4]oxazin-3-yl)-4-fluoro-phenyl]-amide], for which the IC50 came to 390 nM. The same measure for `C[C@@]1(c2cc(NC(=O)c3ncc(Cl)cc3N)ccc2F)CO[C@@](C)(C(F)(F)F)C(N)=N1` [Example 153, 3-Amino-5-chloro-pyridine-2-carboxylic acid [3-((3R,6R)-5-amino-3,6-dimethyl-6-trifluoro-methyl-3,6-dihydro-2H-[1,4]oxazin-3-yl)-4-fluoro-phenyl]amide]: 8 nM.

What is called IC50 is the concentration needed to halve the response being measured.
